Measured values: EP0758233B1, “PDE IV INHIBITORS FOR TREATING MULTIPLE SCLEROSIS” (SCHERING AKTIENGESELLSCHAFT, priority 1994, dated 1995)

Columns and labels:
[1] = tested on: encephalitogenic CD4+ MBP-specific rat TCL (L1402); assay: TNF/LT production by rat MBP-specific T-cell line, cytotoxicity bioassay; assay type: cell-based; details: stereospecificity, (-)- versus (+)-enantiomer
Excerpt: To assess the ability of rolipram alone or in various combinations as described to modify autoimmune processes, we investigated its influence on TNF production in vitro by MBP-specific T-cell lines from MS patients and Lewis rats. MBP is a major candidate antigen in MS, and T-cell-mediated immunity is of crucial importance in its pathogenesis. Similar to EAE, MBP-specific T-cells in humans are often cytotoxic, of Th1 type secreting interferon (IFN)-gamma and TNF/LT, and recognize epitopes that are also encephalitogenic in EAE.
Similar results were found using an encephalitogenic CD4+ MBP-specific rat TCL (L1402). […] Previous investigations had shown that inhibition of cAMP PDE by rolipram is stereospecific.
TNF and LT may both be produced by autoactive T-cells. CD4+ cells have been reported to be the major source of TFN in autoimmune insulitis of NOD mice. The cytokine bioassay for TNF/LT detection employed here is sensitive to TNF and LT, but is 200 times more sensitive to the former.

[2] = tested on: Experimental Allergic Encephalomyelitis (EAE); assay: Prevention of Experimental Allergic Encephalomyelitis (EAE) in immunized marmosets; assay type: in vivo, Callithrix jacchus (common marmoset); details: treatment stopped on day 60 following immunization; two marmosets; day counted from withdrawal
active EAE = assay: Treatment of active (chronic) EAE in a marmoset; assay type: in vivo, Callithrix jacchus (common marmoset); details: one marmoset with chronic EAE; escalating doses of Rolipram in DMSO
[3] = tested on: adoptive cell transfer (tEAE); assay: EAE after adoptive cell transfer (tEAE) in Lewis rats; assay type: in vivo; details: treatment after onset of symptoms; n = 5
Procedure: The results of our in vivo findings prompted us to perform treatment experiments in EAE after active immunization (aEAE) and adoptive cell transfer (tEAE) in Lewis rats. […] In clinically manifest EAE, treatment was started within 6 hours of the onset of symptoms. […] In tEAE similar effects were observed. […] Treatment after onset of symptoms also lead to a marked reduction in maximum severity (treated group: MMS 0.7 ± 0.10, n = 5; vehicle treated matched controls 2.45 ± 0.56, n = 5, p 0.01).

SMILES	times more effective than the (+)-enantiomer (inhibition of TNF/LT production) [1] [times]	clinical signs of EAE following withdrawal of Rolipram [2] [days]	MRI improvement following initiating Rolipram treatment (active EAE) [days]	marked improvement (physical symptoms) after initiating treatment (active EAE) [days]	maximum severity, MMS [3]
COc1ccc(C2CNC(=O)C2)cc1OC1CCCC1 (single isomer, unassigned; (-)) [(-)-rolipram]	55				
COc1ccc(C2CNC(=O)C2)cc1OC1CCCC1 (centres unmarked) [Rolipram, 4-[(3-cyclopentyloxy)-4-methoxyphenyl)-2-pyrrolidinone]		17	14	10	0.7 ± 0.10
